The values that follow come from patent publication US12570604B2, “Polymorphic forms of a tetracycline compound and uses thereof” (Tetraphase Pharmaceuticals, Inc., priority 2018, dated 2026).

Data set [1] is described as follows: Dynamic vapor sorption (DVS) of crystalline Forms A and B. It counts as physicochemical. Conditions: 25° C., adsorption range 0% to 95% RH. As to the method:
(§1) The crystalline forms provided can be additionally characterized by dynamic vapor sorption (DVS), wherein a sample is subjected to varying conditions of humidity and temperature, and the response of the sample is measured gravimetrically. The result of a DVS analysis particularly can be a dual curve providing sample weight percent as a function of relative humidity (RH) over time, a dual curve providing sample water content as a function of RH over time, a curve providing weight percent in relation to RH, or a curve providing water content in relation to RH. Equipment useful for measuring such data is known in the art, and any such equipment can be used to measure the compounds according to the present invention. In certain embodiments, DVS analysis can be carried out by scanning at a series of specific RH values. Thus, specific polymorphs according to the invention may be identified and described in relation to the representative graph and/or the approximate peaks obtained in DVS analysis, particularly scanning from 0% to 95% RH with a step interval of 5% or 10% RH.
DVS pattern for the crystalline Forms A and B was generated at 25° C. using a DVS Moisture Balance Flow System (Model Advantage) with the following conditions: sample size approximately 10 to 20 mg, drying at 25° C. for 60 minutes, adsorption range 0% to 95% RH, desorption range 95% to 0% RH, and step interval 5% RH. […]

The nature of data set [2]: Dynamic vapor sorption (DVS) of crystalline Forms C and D. Conditions: for DVS rapid weight gain: in the range of 25-35% RH; for DVS low weight gain: in the range of 35-75% RH. The format is physicochemical. The protocol:
as §1
DVS data for the crystalline Forms C and D were collected on a Surface Measurement System DVS Intrinsic instrument. Samples were not dried prior to analysis. Sorption and desorption data were collected over a range from 5% to 95% RH at 10% RH increments under a nitrogen purge. The equilibrium criterion used for analysis was less than 0.0100% weight change in 5 minutes with a maximum equilibration time of 3 hours. Data were not corrected for the initial moisture content of the samples.

`CN(C)[C@@H]1C(O)=C(C(N)=O)C(=O)[C@@]2(O)C(O)=C3C(=O)c4c(O)c(NC(=O)[C@@H]5CCCN5C)cc(F)c4C[C@H]3C[C@@H]12` [Form A, (S)—N-((5aR,6aS,7S,10aS)-9-carbamoyl-7-(dimethylamino)-4-fluoro-1,8,10a,11-tetrahydroxy-10,12-dioxo-5,5a,6,6a,7,10,10a,12-octahydrotetracen-2-yl)-1-methylpyrrolidine-2-carboxamide]: the DVS weight gain result in data set [1] (at 75% RH) is given as “about 19%”; in data set [1] (at 95% RH), “about 40%”.
Turning to `CN(C)[C@@H]1C(O)=C(C(N)=O)C(=O)[C@@]2(O)C(O)=C3C(=O)c4c(O)c(NC(=O)[C@@H]5CCCN5C)cc(F)c4C[C@H]3C[C@@H]12` [Form C, (S)—N-((5aR,6aS,7S,10aS)-9-carbamoyl-7-(dimethylamino)-4-fluoro-1,8,10a,11-tetrahydroxy-10,12-dioxo-5,5a,6,6a,7,10,10a,12-octahydrotetracen-2-yl)-1-methylpyrrolidine-2-carboxamide], the DVS weight gain result in data set [2] (in the range of 5-25% RH) is recorded as “about 2.7%”; in data set [2] (in the range of 35-45% RH), “about 6.1%”. In addition, in data set [2], the “DVS rapid weight gain” value was “about 10%”. Moreover, in data set [2], the “DVS low weight gain” value was “about 3.7%”.
Regarding `CN(C)[C@@H]1C(O)=C(C(N)=O)C(=O)[C@@]2(O)C(O)=C3C(=O)c4c(O)c(NC(=O)[C@@H]5CCCN5C)cc(F)c4C[C@H]3C[C@@H]12` [Form D, (S)—N-((5aR,6aS,7S,10aS)-9-carbamoyl-7-(dimethylamino)-4-fluoro-1,8,10a,11-tetrahydroxy-10,12-dioxo-5,5a,6,6a,7,10,10a,12-octahydrotetracen-2-yl)-1-methylpyrrolidine-2-carboxamide], the “DVS total weight gain” value in data set [2] (between 5 and 95% RH) is “about 39.2%”. The DVS weight gain entry in data set [2] (in the range of 5-25% RH) was “about 2.7%”. Also, in data set [2], the “DVS rapid weight gain” value was “about 10%” and the “DVS low weight gain” value is recorded as “about 3.7%”.
